Each structure is given as a SMILES string.

The target in this experiment is T1, human cGAS (residues 161-522) (Homo sapiens, UniProt Q8N884).
T1 construct: Recombinantly expressed purified human cGAS (residues 161-522) was used at 25 nM; made in house
T1 sequence (Q8N884 161-522): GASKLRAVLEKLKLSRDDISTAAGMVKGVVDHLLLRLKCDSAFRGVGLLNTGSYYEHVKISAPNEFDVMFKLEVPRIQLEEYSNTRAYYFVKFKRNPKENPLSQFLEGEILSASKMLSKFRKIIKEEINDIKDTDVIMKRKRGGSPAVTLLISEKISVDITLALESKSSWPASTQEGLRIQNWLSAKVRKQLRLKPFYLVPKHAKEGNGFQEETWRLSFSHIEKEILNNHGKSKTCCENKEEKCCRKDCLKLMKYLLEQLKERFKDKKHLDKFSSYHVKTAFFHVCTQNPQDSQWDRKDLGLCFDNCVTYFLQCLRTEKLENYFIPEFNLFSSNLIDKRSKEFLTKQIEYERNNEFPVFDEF
Nature of the experiment: Malachite Green assay to measure cGAS activity. In kind it is biochemical. Particulars: coupled enzymatic assay, phosphate detection by Malachite Green; 25 nM cGAS, 80 μM ATP, 80 μM GTP, 100 nM ISD, 4 hour at RT. The procedure:
Compounds were tested for cGAS inhibition in a coupled enzymatic assay based on Phosphate detection by Malachite Green. Final assay conditions were 20 mM TRIS pH 7.5 (Applichem), 5 mM MgCl2 (Sigma) and 0.01% BSA (Sigma) supplemented with 80 μM ATP (Sigma), 80 μM GTP (Sigma) and 100 nM Interferon Stimulating DNA (ISD) (Microsynth). Recombinantly expressed purified human cGAS (residues 161-522) was used at 25 nM.
All compounds were prepared as 10 mM stock solutions in DMSO and a 16 pt dilution series in DMSO with a dilution factor of 2.5 was prepared. 1 μL of DMSO dilution series was transferred to 32.3 μL reaction buffer, mixed by pipetting up/down, spun for 1 minute at 3000 rpm and was visually inspected for precipitation. 5 μL of 3-fold enzyme stock solution were transferred to an empty 384-well Black/Clear Flat Bottom Polystyrene NBS (Corning) rows 3-24. Rows 1-2 were filled with assay buffer. Plates were spun 10 seconds at 1000 rpm (164×g). 5 μL of compound intermediate dilution was added and mixed by pipetting up/down to rows 3-24. Rows 1-2 were filled with 3.1% DMSO assay buffer. Plates were spun 10 seconds at 1000 rpm (164×g). 5 μL 3-fold Nucleotide/DNA mix was added to all wells to start the reaction. Plates were spun 10 seconds at 1000 rpm (164×g) and incubated for 4 hour at room temperature (RT) in the dark. 5 μL 4 U/mL PPase (Sigma) were added to all wells. Plates spun 10 seconds at 1000 rpm (164×g). 10 μL BioMol green Solution (Enzo Life Sciences) was added to all wells. Plates spun 10 seconds at 1000 rpm (164×g) and incubated 30 minutes at RT in the dark. Absorbance data was collected 620 nm on an EnVision Multilable Reader (Perkin Elmer) and the following measurement settings were used: excitation filter photometric was 620 nm; excitation from the top; measurement height was 1 mm; number of flashes was 30; number of flashes integrated was 1.
All plates are checked for abnormalities and outliers in the Blank Control (no protein, row 1) and the Neutral Control (no compound, row 2) are excluded using the 3*SD rule. Data was normalized to 0 and 100% by Blank and Neutral Control and each curve was fitted and judged using the 4 parameter logistic equation to determine the IC50 for cGAS inhibition.
Table 1 provides IC50 values (μM) for cGAS inhibition obtained for particular examples of the present invention as measured by the above-described assay.
Regarding `Cc1ccc(-c2ccc(NC(=O)Cn3cncn3)c(C(=O)O)c2)c(Cl)c1` [Example 1, 4-(2-(1H-1,2,4-Triazol-1-yl)acetamido)-2′-chloro-4′-methyl-[1,1′-biphenyl]-3-carboxylic Acid], the half-inhibitory concentration (IC50) – broadly, the concentration that gives 50% inhibition – turned out to be 1830 nM.
Under `Cc1ccc(-c2ccc(NC(=O)Cc3cnc(C)[nH]c3=O)c(C(=O)O)c2)c(Cl)c1` [Example 2, 2′-Chloro-4′-methyl-4-(2-(2-methyl-6-oxo-1,6-dihydropyrimidin-5-yl)acetamido)-[1,1′-biphenyl]-3-carboxylic Acid] stands 2090 nM; under `Cc1ccc(-c2ccc(NC(=O)CCN3CCOCC3)c(C(=O)O)c2)c(Cl)c1` [Example 3, 2′-Chloro-4′-methyl-4-(3-morpholinopropanamido)-[1,1′-biphenyl]-3-carboxylic Acid], 4820 nM.
Regarding `Cc1ccc(-c2ccc(NC(=O)CN3CCOCC3)c(C(=O)O)c2)c(Cl)c1` [Example 4, 5-(2-Chloro-4-methylphenyl)-2-[(2-morpholin-4-ylacetyl)amino]benzoic Acid], it took 320 nM to reach half-maximal inhibition (IC50). Compared with the last molecule, the IC50 is about 15-fold lower.
In turn, `Cc1ccc(-c2ccc(NC(=O)Cc3ccccc3)c(C(=O)O)c2)c(Cl)c1` [Example 5, 5-(2-Chloro-4-methylphenyl)-2-[(2-phenylacetyl)amino]benzoic Acid] came in with an IC50 of 3070 nM.
Next, `Cc1ccc(-c2ccc(OCCn3ccnc3)c(C(=O)O)c2)c(Cl)c1` [Example 6, 5-(2-Chloro-4-methylphenyl)-2-(2-imidazol-1-ylethoxy)benzoic Acid]: 2800 nM; `Cc1ccc(-c2ccc(OCCN3CCS(=O)(=O)CC3)c(C(=O)O)c2)c(Cl)c1` [Example 7, 5-(2-Chloro-4-methylphenyl)-2-[2-(1,1-dioxo-1,4-thiazinan-4-yl)ethoxy]benzoic Acid]: 2670 nM.
Under `Cc1ccc(-c2ccc(OCc3ccccc3)c(C(=O)O)c2)c(Cl)c1` [Example 8, 5-(2-Chloro-4-methylphenyl)-2-phenylmethoxybenzoic Acid] stands 4210 nM.

Source of the values: patent US20230192631A1, “Biphenyl Derivatives” (Hoffmann-La Roche Inc., priority 2020, published 2023).
